# ChEMBL document CHEMBL1158659, “The alkaloids of Delphinium cashmirianum” (J Nat Prod, 1979)
# Active and inactive are the calls of the source. No cut-off for these calls is given here.
# Columns and labels:
# [1] = test system: Oryctolagus cuniculus; assay: Cardiotoxicity in iv dosed Albino rabbit assessed as drug level to produce arrhythmias tested at basal heart rate of 170 beats/min; assay type: toxicity, organism-based; details: in vivo
# [2] = test system: Oryctolagus cuniculus; assay: Cardiovascular activity in Albino rabbit assessed as change in heart rate tested at basal heart rate of 170 beats/min at 0.25 mg/kg, iv by physiograph 4; assay type: functional
# [3] = test system: Oryctolagus cuniculus; assay: Cardiovascular activity in Albino rabbit assessed as change in heart rate tested at basal heart rate of 170 beats/min at 1.0 mg/kg, iv by physiograph 4; assay type: functional
# [4] = test system: Oryctolagus cuniculus; assay: Cardiovascular activity in Albino rabbit assessed as change in heart rate tested at basal heart rate of 170 beats/min at 0.50 mg/kg, iv by physiograph 4; assay type: functional; details: dose 0.5 mg/kg
# [5] = test system: Oryctolagus cuniculus; assay: Cardiotoxicity in iv dosed Albino rabbit assessed as drug level to produce arrhythmias tested at basal heart rate of 180 beats/min; assay type: toxicity, organism-based; details: in vivo
# [6] = test system: Oryctolagus cuniculus; assay: Cardiotoxicity in iv dosed Albino rabbit assessed as time to produce arrhythmias tested at basal heart rate of 170 beats/min; assay type: toxicity, organism-based; details: in vivo
# [7] = test system: Oryctolagus cuniculus; assay: Cardiotoxicity in iv dosed Albino rabbit assessed as time to produce arrhythmias tested at basal heart rate of 180 beats/min; assay type: toxicity, organism-based; details: in vivo
# [8] = test system: Oryctolagus cuniculus; assay: Cardiovascular activity in Albino rabbit assessed as change in heart rate tested at basal heart rate of 170 beats/min at 0.10 mg/kg, iv by physiograph 4; assay type: functional; details: dose 0.1 mg/kg
# [9] = test system: Oryctolagus cuniculus; assay: Cardiovascular activity in Albino rabbit assessed as change in heart rate tested at basal heart rate of 180 beats/min at 1.0 mg/kg, iv by physiograph 4; assay type: functional
# [10] = test system: Oryctolagus cuniculus; assay: Cardiovascular activity in Albino rabbit assessed as change in heart rate tested at basal heart rate of 190 beats/min at 0.25 mg/kg, iv by physiograph 4; assay type: functional
# [11] = test system: Oryctolagus cuniculus; assay: Cardiovascular activity in Albino rabbit assessed as change in heart rate tested at basal heart rate of 190 beats/min at 0.10 mg/kg, iv by physiograph 4; assay type: functional; details: dose 0.1 mg/kg
# [12] = species: Cavia porcellus; assay: Cardiovascular activity in albino guinea pig atria assessed as increase in heart rate at 100 uM by physiograph 4; assay type: functional, tissue-based; details: Cardiac atrium
# [13] = Arrhythmogenic activity in albino guinea pig atria after repeated atrial washing; assay type: tissue-based, Cavia porcellus, Cardiac atrium
# [14] = species: Cavia porcellus; assay: Cardiovascular activity in albino guinea pig atria assessed as increase in heart rate by physiograph 4; assay type: functional, tissue-based; details: Cardiac atrium
# [15] = test system: Oryctolagus cuniculus; assay: Cardiovascular activity in Albino rabbit assessed as change in heart rate tested at basal heart rate of 190 beats/min at 0.50 mg/kg, iv by physiograph 4; assay type: functional; details: dose 0.5 mg/kg
# [16] = Arrhythmogenic activity in albino guinea pig atria at 100 uM; assay type: tissue-based, Cavia porcellus, Cardiac atrium
# [17] = test system: Oryctolagus cuniculus; assay: Cardiotoxicity in iv dosed Albino rabbit assessed as time to produce arrhythmias tested at basal heart rate of 190 beats/min; assay type: toxicity, organism-based; details: in vivo
# [18] = test system: Oryctolagus cuniculus; assay: Cardiovascular activity in Albino rabbit assessed as change in heart rate tested at basal heart rate of 190 beats/min at 1.0 mg/kg, iv by physiograph 4; assay type: functional
# [19] = test system: Oryctolagus cuniculus; assay: Cardiotoxicity in iv dosed Albino rabbit assessed as drug level to produce arrhythmias tested at basal heart rate of 190 beats/min; assay type: toxicity, organism-based; details: in vivo
# [20] = Arrhythmogenic activity in albino guinea pig atria at 10 uM after repeated atrial washing; assay type: tissue-based, Cavia porcellus, Cardiac atrium
# [21] = test system: Oryctolagus cuniculus; assay: Cardiotoxicity in iv dosed Albino rabbit assessed as time to produce arrhythmias tested at basal heart rate of 150 beats/min; assay type: toxicity, organism-based; details: in vivo
# [22] = test system: Oryctolagus cuniculus; assay: Cardiovascular activity in Albino rabbit assessed as sinusoidal heart rate tested at basal heart rate of 150 beats/min at 0.010 mg/kg, iv by physiograph 4; assay type: functional; details: dose 0.01 mg/kg
# [23] = test system: Oryctolagus cuniculus; assay: Cardiotoxicity in iv dosed Albino rabbit assessed as drug level to produce arrhythmias tested at basal heart rate of 150 beats/min; assay type: toxicity, organism-based; details: in vivo
# [24] = test system: Oryctolagus cuniculus; assay: Cardiotoxicity in iv dosed Albino rabbit assessed as drug level to produce arrhythmias tested at basal heart rate of 150 beats/min upto 30 mins; assay type: toxicity, organism-based; details: in vivo, 0.5 h
# [25] = test system: Oryctolagus cuniculus; assay: Cardiovascular activity in Albino rabbit assessed as sinusoidal heart rate tested at basal heart rate of 150 beats/min at 0.005 mg/kg, iv by physiograph 4; assay type: functional
# [26] = Arrhythmogenic activity in albino guinea pig atria at 30 uM; assay type: tissue-based, Cavia porcellus, Cardiac atrium
# [27] = test system: Oryctolagus cuniculus; assay: Cardiovascular activity in Albino rabbit assessed as change in heart rate tested at basal heart rate of 180 beats/min at 0.25 mg/kg, iv by physiograph 4; assay type: functional
# [28] = test system: Oryctolagus cuniculus; assay: Cardiovascular activity in Albino rabbit assessed as sinusoidal heart rate tested at basal heart rate of 180 beats/min at 0.05 mg/kg, iv by physiograph 4; assay type: functional
# [29] = test system: Oryctolagus cuniculus; assay: Cardiovascular activity in Albino rabbit assessed as change in heart rate tested at basal heart rate of 180 beats/min at 0.10 mg/kg, iv by physiograph 4; assay type: functional; details: dose 0.1 mg/kg
# [30] = test system: Oryctolagus cuniculus; assay: Cardiovascular activity in Albino rabbit assessed as change in heart rate tested at basal heart rate of 180 beats/min at 5.0 mg/kg, iv by physiograph 4; assay type: functional
# [31] = test system: Oryctolagus cuniculus; assay: Cardiovascular activity in Albino rabbit assessed as change in heart rate tested at basal heart rate of 180 beats/min at 0.50 mg/kg, iv by physiograph 4; assay type: functional; details: dose 0.5 mg/kg
smiles,measurement,setting,value
CCN1C[C@]2(OC(=O)c3ccccc3N)CC[C@H](OC)[C@@]34[C@@H]2C[C@H]([C@@H]13)[C@@]1(O)C[C@H](OC)[C@H]2C[C@@H]4[C@]1(O)[C@H]2OC,Activity,[1],1 mg/kg
same,Activity,[2],5 bpm
same,Activity,[3],0 bpm
same,Activity,[4],0 bpm
same,Activity,[5],1 mg/kg
same,Activity,[6],52 s
same,Activity,[7],85 s
same,Activity,[8],8 bpm
same,Activity,[9],0 bpm
CCN1C[C@]2(OC(=O)c3ccccc3NC(C)=O)CC[C@H](OC)[C@@]34[C@@H]2C[C@@H]([C@@H]13)[C@@]1(O)C[C@H](OC)[C@H]2C[C@@H]4[C@]1(O)[C@H]2OC,Activity,[10],-5 bpm
same,Activity,[11],0 bpm
same,Activity,[12],inactive
same,Activity,[13],Non-toxic
same,Activity,[14],inactive
same,Activity,[15],-30 bpm
same,Activity,[16],Toxic
same,Activity,[17],45 s
same,Activity,[18],-35 bpm
same,Activity,[19],1 mg/kg
same,Activity,[20],Toxic
CCN1C[C@]2(COC)[C@H](O)C[C@H](OC)[C@@]34[C@@H]5C[C@@]6(O)[C@H](OC(=O)c7ccccc7)[C@@H]5[C@@](OC(C)=O)([C@@H]([C@H](OC)[C@H]23)[C@@H]14)[C@@H](O)[C@@H]6OC [ACONITINE],Activity,[21],30 s
same,Activity,[22],170 bpm
same,Activity,[14],Dose-dependent effect
same,Activity,[23],0.01 mg/kg
same,Activity,[24],0.005 mg/kg
same,Activity,[17],12 s
same,Activity,[25],110 bpm
same,Activity,[19],0.1 mg/kg
same,Activity,[26],Toxic
CCN1C[C@]2(COC(=O)c3ccccc3N)CC[C@H](OC)[C@]34C1[C@](O)([C@@H](OC)[C@H]23)[C@@]1(O)C[C@H](OC)[C@H]2C[C@@H]4[C@@H]1[C@H]2OC [ANTHRANOYLLYCOCTONINE],Activity,[2],8 bpm
same,Activity,[3],-5 bpm
same,Activity,[4],5 bpm
CCN1C[C@]2(COC(=O)c3ccccc3NC(=O)CCC(N)=O)CC[C@H](OC)[C@@]34[C@@H]5C[C@H]6[C@H](OC)[C@@H]5[C@](O)(C[C@@H]6OC)[C@](O)([C@@H](OC)[C@H]23)[C@@H]14 [AVADHARIDINE],Activity,[27],5 bpm
same,Activity,[28],0 bpm
same,Activity,[29],8 bpm
same,Activity,[30],-10 bpm
same,Activity,[9],0 bpm
same,Activity,[31],0 bpm
